Test results as given in the supplement of paper PMC3974653.
Counter-ions that a name gives are not always drawn.

What follows are compounds tested on MTT (mouse pheochromocytoma) (assay: IC50 of cell viability (ATP content)). Details: (24 or 48 h).
Summary of the method: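 After overnight culture at 37°C, 5% CO2 in white 1536-well plates, MTT mouse pheochromocytoma cells were given 23 nl of library compound in DMSO by pintool across 8 concentrations, spanning final 0.5 nM to 46 µM. Following 24 or 48 hrs, CellTiter-Glo luminescence was read after 15 minutes and normalised against positive-control (100%) and DMSO (0%) wells. A four-parameter logistic model provided the IC50.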

SMILES	IC50 of cell viability [µM]
C=CC(=O)NCNC(=O)C=C [N,N'-Methylenebis(acrylamide)]	> 46
[NH2][Pt]([NH2])([Cl])[Cl] [cis-Dichlorodiamine platinum]	> 46
O=C(CCCN1CCC2(CC1)C(=O)NCN2c1ccccc1)c1ccc(F)cc1 [SPIPERONE]	> 46
NCCc1cc[nH]n1 [Betazole hydrochloride]	> 46
OC1C(O)C(O)C(O)C(O)C1O (stereo unspecified) [INOSITOL]	> 46
CCCCCC(O)/C=C/C=O (racemic) [(±)-4-Hydroxynon-2-enal]	> 46
C[C@H](N)[C@@H](O)c1ccccc1 [Phenylpropanolamine hydrochloride]	> 46
CC(C)(Oc1ccc(CCNC(=O)c2ccc(Cl)cc2)cc1)C(=O)O [Bezafibrate]	> 46
O=C(O)c1cc2ccccc2c(Cc2c(O)c(C(=O)O)cc3ccccc23)c1O [Pamoic acid]	> 46
O=P1(N(CCCl)CCCl)NC(OO)CCO1 (stereo unspecified) [4-Hydroperoxy Cyclophosphamide]	> 46
COc1ccc(C(=O)/C(Br)=C/C(=O)O)cc1 [ACIDUM BROMEBRICUM]	> 46
CCC1NC(=O)C(NC(=O)c2ncccc2O)C(C)OC(=O)C(c2ccccc2)NC(=O)C2CC(=O)CCN2C(=O)C(Cc2ccccc2)N(C)C(=O)C2CCCN2C1=O (stereo unspecified) [VIRGINIAMYCIN]	> 46
CCCCCCCCCCCCCCCC(=O)O [Hexadecanoic acid]	> 46
[NH2][Pt]1([NH2])[O]C(=O)C2(CCC2)C(=O)[O]1 [CARBOPLATIN]	> 46
O.O.O=S([O-])CO.[Na+] [Hydroxymethanesulfinic acid monosodium salt dihydrate]	> 46
Cc1cccc(C)c1OCC(=O)N[C@@H](Cc1ccccc1)[C@@H](O)C[C@H](Cc1ccccc1)NC(=O)[C@H](C(C)C)N1CCCNC1=O [LOPINAVIR]	> 46
COc1cc(C(=O)OC(COCCC(C)C)CN2CCOCC2)cc(OC)c1OC (stereo unspecified) [Amoproxan]	> 46
CCCCC(C)(O)C/C=C/[C@H]1[C@H](O)CC(=O)[C@@H]1CCCCCCC(=O)OC (stereo partly specified) [Misoprostol]	> 46
COc1ccc2c(c1OC)C(=O)O[C@H]2[C@@H]1c2cc3c(cc2CCN1C)OCO3 [(1S,9R)-beta-HYDRASTINE]	> 46
CN1C[C@@H](\C=C\2[C@H]1CC3=C[NH]C4=C3C2=CC=C4)C(=O)N[C@]5(C)O[C@@]6(O)[C@@H]7CCCN7C(=O)[C@H](CC8=CC=CC=C8)N6C5=O.CN9C[C@@H](\C=C\%10[C@H]9CC%11=C[NH]C%12=C%11C%10=CC=C%12)C(=O)N[C@]%13(C)O[C@@]%14(O)[C@@H]%15CCCN%15C(=O)[C@H](CC%16=CC=CC=C%16)N%14C%13=O.O[C@H]([C@@H](O)C([O-])=O)C(O)=O [Ergotamine D-tartrate]	> 46
CN(C)CCCN1c2ccccc2Sc2ccc(C(F)(F)F)cc21.Cl [TRIFLUPROMAZINE HYDROCHLORIDE]	> 46
OCC1OC([S][Au])[C@H](O)C(O)C1O (stereo partly specified) [AUROTHIOGLUCOSE]	> 46
CC(=O)N[C@@H](CS)C(=O)O [N-acetylcysteine]	> 46

SMILES	IC50 of cell viability [µM]
N=C(N)NCc1cccc(I)c1.N=C(N)NCc1cccc(I)c1.O=[S+]([O-])(O)O [m-Iodobenzylguanidine hemisulfate]	> 46
COc1ccc(Cc2nccc3cc(OC)c(OC)cc23)cc1OC [Papaverine hydrochloride]	> 46
CC(C)(Oc1ccc(C2CC2(Cl)Cl)cc1)C(=O)O (stereo unspecified) [Ciprofibrate]	> 46
CNC[C@@H]1CC[C@@H](N)[C@@H](O[C@H]2[C@H](O)[C@@H](O[C@H]3OC[C@](C)(O)[C@H](NC)[C@H]3O)[C@H](N)C[C@@H]2N)O1 [Micronomicin sulfate]	> 46
C[C@H]1[C@H](NC(=O)/C(=N/OC(C)(C)C(=O)O)c2csc(N)n2)C(=O)N1[S+](=O)([O-])O [Aztreonam]	> 46
NCC1CCC(C(=O)O)CC1 (stereo unspecified) [Tranexamic acid]	> 46
CCC1\C(=N/N=C(C2=CC(=C(OC)C=C2)OC)\C3=C1C=C(OC)C(=C3)OC)C (stereo unspecified) [TOFISOPAM]	> 46
Cc1cccc(C)c1NC(=O)CN(CC(=O)O)CC(=O)O [Lidofenin]	> 46
CCC(C)C(=O)OC1CC/C=C2/C=C\C(C)C(CCC3CC(O)CC(=O)O3)[C@H]12 (stereo partly specified) [COMPACTIN]	> 46
CO[C@H]1C[C@@H](O[C@@H]2[C@@H](C)O[C@@H](O[C@@H]3/C(C)=C/CC4C[C@@H](C[C@]5(C=C[C@@H](C)[C@H](C6CCCCC6)O5)O4)OC(=O)[C@@H]4C=C(C)[C@@H](O)[C@H]5OC/C(=C\C=C\[C@@H]3C)[C@]54O)C[C@H]2OC)O[C@@H](C)[C@@H]1O [Doramectin]	> 46
NCCCC[C@H](NC(=O)[C@@H]1CCCN1C(=O)[C@@H]1CSSC[C@H](NC(=O)CNC(=O)CNC(=O)CN)C(=O)N[C@@H](Cc2ccc(O)cc2)C(=O)N[C@@H](Cc2ccccc2)C(=O)N[C@@H](CCC(N)=O)C(=O)N[C@@H](CC(N)=O)C(=O)N1)C(=O)NCC(N)=O [TERLIPRESSIN]	> 46
Oc1cccc(O)c1 [Resorcinol]	> 46
S=C1SCN(Cc2ccccc2)CN1Cc1ccccc1 [Sulbentina]	> 46
CC1CC(OC(=O)c2ccccc2O)CC(C)(C)C1 (stereo unspecified) [Homosalate]	> 46
C[C@H](N[C@@H](C)COc1ccccc1)[C@H](O)c1ccc(O)cc1 [Isoxsuprine hydrochloride]	> 46
CN1C2CCC1C(C(=O)O)C(OC(=O)c1ccccc1)C2 (single isomer, unassigned; (-)) [(-)-Benzoylecgonine]	> 46
CC(=O)[C@H]1CC[C@H]2[C@@H]3CC[C@H]4C[C@](C)(O)CC[C@]4(C)[C@H]3CC[C@]12C [GANAXOLONUM]	> 46
CN(CC(=O)[NH+]1CCOCC1)Cc1c(Cl)cccc1NC(=O)c1ccccc1 [Fominoben hydrochloride]	> 46
CCN(CC)CCOC(=O)[C@@H](Cc1cccc2ccccc12)C[C@H]1CCCO1 [Nafronyl oxalate]	> 46
C[C@]\12CCC(=O)\C=C1CC[C@@H]3[C@@H]2CC[C@@]4(C)[C@H]3CC[C@]4(O)C(=O)CO [Cortexolone]	> 46
COc1cc2c(N3CCN(C(=O)Nc4ccc(OC(C)C)cc4)CC3)ncnc2cc1OCCCN1CCCCC1 [Tandutinib]	> 46
C[C@@H]1CCC[C@H](C)N1NC(=O)c1ccc(Cl)c([S+](N)(=O)[O-])c1 [Clopamide]	> 46
C[C@@H](C(=O)O)c1ccc(C(=O)c2ccccc2)s1 [Tiaprofenic acid]	> 46
